Results on twelve compounds are retold here after DBAASP.

By MIC is commonly meant the lowest concentration that inhibits growth of the organism.

Converted amounts (≈) assume the structure as drawn.

Common to all, as to experiment: ≥ marks a high value that may be exact or a test limit, other limits are often not marked, values filed in µg/mL are converted to µM
Assay [1] concerns Staphylococcus aureus ATCC 2592.
Assay [2] relates to Candida albicans ATCC 2002.
The test system of assay [3] is Shigella dysenteriae.
Assay [4] has as its system Acinetobacter calcoaceticus.
Assay [5] deals with Escherichia coli ATCC 25922.
The test system of assay [6] is Pseudomonas aeruginosa.
The test system of assay [7] is Escherichia coli DH5alpha.
The subject of assay [8] is Staphylococcus aureus ATCC 9144.
Assay [9] deals with Escherichia coli ATCC 10536.
Assay [10] concerns Bacillus subtilis ATCC 6633.
Assay [11] has as its system Staphylococcus aureus IFO 12732.
The subject of assay [12] is Escherichia coli IFO 12734.
For assay [13], the system named is Bacillus subtilis IFO 3513.
The test system of assay [14] is Staphylococcus aureus ATCC BAA-1556.
The test system of assay [15] is Saccharomyces cerevisiae KCTC 7296.
The test system of assay [16] is Trichosporon beigelii KCTC 7707.
The subject of assay [17] is Candida albicans TIMM 1768.
In assay [18] the test system is Streptococcus pyogenes ATCC 19615.
Assay [19] has as its system Escherichia coli.
The test system of assay [20] is Pseudomonas aeruginosa ATCC 27853.
Assay [21] has as its system Enterococcus faecalis ATCC 29212.
Assay [22] concerns Salmonella enterica subsp. enterica serovar Typhimurium ATCC 14028.
The subject of assay [23] is Klebsiella pneumoniae ATCC 13883.
Assay [24] concerns Staphylococcus aureus ATCC 25923.
Assay [25] concerns Bacillus subtilis.

In the case of `CC[C@H](C)[C@H](NC(=O)[C@@H]1CCCN1C(=O)[C@H](Cc1ccccc1)NC(=O)[C@@H](N)Cc1ccccc1)C(=O)N[C@H](C(=O)NCC(=O)N[C@@H](CCCCN)C(=O)N[C@@H](CC(C)C)C(=O)N[C@@H](CC(C)C)C(=O)N[C@@H](CO)C(N)=O)C(C)C` [FFPIVGKLLS], the MIC in assay [1] is 13.4 µM (≈ 15 µg/mL); in assay [2] it was 13.4 µM (≈ 15 µg/mL); in assay [3], no less than 53.6 µM; in assay [4], no less than 66.9 µM; in assay [5], 26.8 µM (≈ 30 µg/mL); in assay [6] it was 22.3 µM (≈ 25 µg/mL).

Turning to `CC[C@H](C)[C@H](NC(=O)[C@H](CCCN=C(N)N)NC(=O)[C@@H](NC(=O)[C@@H](NC(=O)[C@@H]1CCCN1C(=O)[C@@H](NC(=O)[C@@H](NC(=O)[C@H](C)NC(=O)[C@@H]1CCCN1C(=O)CNC(=O)[C@H](Cc1ccc(O)cc1)NC(=O)[C@H](CCCCN)NC(=O)[C@H](CCCCN)NC(=O)[C@H](Cc1c[nH]c2ccccc12)NC(=O)[C@H](C)NC(=O)[C@H](CCCN=C(N)N)NC(=O)[C@H](CC(C)C)NC(=O)[C@H](C)NC(=O)[C@H](CCCCN)NC(=O)[C@H](CCCN=C(N)N)NC(=O)CNC(=O)[C@H](CC(C)C)NC(=O)[C@H](CO)NC(=O)[C@H](CCCN=C(N)N)NC(=O)[C@H](C)NC(=O)CNC(=O)CN)[C@@H](C)CC)C(C)C)[C@@H](C)CC)[C@@H](C)CC)C(N)=O` [GGARSLGRKALRAWKKYGPAIVPIIRI], the minimal inhibitory concentration (MIC) stood at 2.6 µM (≈ 7.66 µg/mL) in [7], 3.9 µM (≈ 11.5 µg/mL) in assay [8], 2.6 µM (≈ 7.66 µg/mL) in assay [9] and 1.7 µM (≈ 5.01 µg/mL) in [10].

Consider `CC[C@H](C)[C@H](NC(=O)[C@H](CCCN=C(N)N)NC(=O)[C@@H](NC(=O)[C@@H](NC(=O)[C@@H]1CCCN1C(=O)[C@@H](NC(=O)[C@@H](NC(=O)[C@@H](NC(=O)[C@@H]1CCCN1C(=O)CNC(=O)[C@H](Cc1ccc(O)cc1)NC(=O)[C@H](CCCCN)NC(=O)[C@H](CCCCN)NC(=O)[C@H](Cc1c[nH]c2ccccc12)NC(=O)[C@H](C)NC(=O)[C@H](CCCN=C(N)N)NC(=O)[C@H](CC(C)C)NC(=O)[C@H](C)NC(=O)[C@H](CCCCN)NC(=O)[C@H](CCCN=C(N)N)NC(=O)CNC(=O)[C@H](CC(C)C)NC(=O)[C@H](CO)NC(=O)[C@H](CCCN=C(N)N)NC(=O)[C@H](C)NC(=O)CNC(=O)CN)[C@@H](C)CC)[C@@H](C)CC)C(C)C)[C@@H](C)CC)[C@@H](C)CC)C(N)=O` [GGARSLGRKALRAWKKYGPIIVPIIRI], for which the MIC worked out at 2.7 µM (≈ 8.07 µg/mL) in assay [7], 3.8 µM (≈ 11.4 µg/mL) in assay [8], 2.5 µM (≈ 7.47 µg/mL) in [9] and 1.5 µM (≈ 4.48 µg/mL) in assay [10].

Turning to `CC[C@H](C)[C@H](N)C(=O)N[C@@H](CC(C)C)C(=O)N1CCC[C@H]1C(=O)N[C@@H](CC(C)C)C(=O)N[C@@H](CCCCN)C(=O)N[C@@H](CC(C)C)C(=O)N1CCC[C@H]1C(=O)N[C@@H](Cc1c[nH]c2ccccc12)C(=O)N[C@@H](Cc1c[nH]c2ccccc12)C(=O)N1CCC[C@H]1C(=O)N[C@@H](Cc1c[nH]c2ccccc12)C(=O)N[C@@H](CCCN=C(N)N)C(=O)N[C@@H](CCCN=C(N)N)C(N)=O` [ILPLKLPWWPWRR], the MIC came to 1.78 µM (≈ 3.13 µg/mL) in assay [11], 28.4 µM (≈ 50 µg/mL) in assay [12] and 1.78 µM (≈ 3.13 µg/mL) in assay [13].

On to `CC[C@H](C)[C@H](N)C(=O)N[C@@H](CC(C)C)C(=O)N1CCC[C@H]1C(=O)N[C@@H](Cc1c[nH]c2ccccc12)C(=O)N[C@@H](CCCCN)C(=O)N[C@@H](Cc1c[nH]c2ccccc12)C(=O)N1CCC[C@H]1C(=O)N[C@@H](Cc1c[nH]c2ccccc12)C(=O)N[C@@H](CC(C)C)C(=O)N1CCC[C@H]1C(=O)N[C@@H](Cc1c[nH]c2ccccc12)C(=O)N[C@@H](CCCCN)C(=O)N[C@@H](CCCCN)C(N)=O` [ILPWKWPWLPWKK], for which the MIC came out at 1.76 µM (≈ 3.13 µg/mL) in assay [11], 28.1 µM (≈ 50 µg/mL) in assay [12] and 1.76 µM (≈ 3.13 µg/mL) in assay [13].

Regarding `CC[C@H](C)[C@H](N)C(=O)N[C@@H](CC(C)C)C(=O)N1CCC[C@H]1C(=O)N[C@@H](Cc1c[nH]c2ccccc12)C(=O)N[C@@H](CCCCN)C(=O)N[C@@H](Cc1c[nH]c2ccccc12)C(=O)N1CCC[C@H]1C(=O)N[C@@H](Cc1ccc(O)cc1)C(=O)N[C@@H](CC(C)C)C(=O)N1CCC[C@H]1C(=O)N[C@@H](Cc1c[nH]c2ccccc12)C(=O)N[C@@H](CCCN=C(N)N)C(=O)N[C@@H](CCCN=C(N)N)C(N)=O` [ILPWKWPYLPWRR], the MIC in assay [11] was 3.45 µM (≈ 6.25 µg/mL); in assay [12] it was 13.8 µM (≈ 25 µg/mL); in [13] it was 1.73 µM (≈ 3.13 µg/mL).

In assay [14], `CC(C)C[C@H](NC(=O)[C@H](CC(C)C)NC(=O)[C@H](CCCCN)NC(=O)[C@@H](N)CCCCN)C(=O)N[C@@H](CCCCN)C(=O)N[C@@H](Cc1c[nH]c2ccccc12)C(N)=O` [KKLLKW] displayed an MIC of no less than 100 µM.

The compound `NCCCC[C@H](N)C(=O)N[C@@H](Cc1c[nH]c2ccccc12)C(=O)N[C@@H](CCCN=C(N)N)C(=O)N[C@@H](CCCN=C(N)N)C(=O)N[C@@H](Cc1c[nH]c2ccccc12)C(N)=O` [KWRRW] had an MIC in assay [14] of no less than 100 µM.

For `CC(C)C[C@H](NC(=O)[C@H](CC(C)C)NC(=O)[C@H](CCCCN)NC(=O)[C@H](CC(C)C)NC(=O)[C@H](CC(C)C)NC(=O)[C@H](Cc1c[nH]c2ccccc12)NC(=O)[C@H](CCCCN)NC(=O)[C@H](CC(C)C)NC(=O)[C@@H](N)CC(C)C)C(N)=O` [LLKWLLKLL], the minimum inhibitory concentration (MIC) in assay [14] came to 3.13 µM (≈ 3.56 µg/mL).

As to `CC(C)C[C@H](NC(=O)[C@H](CC(C)C)NC(=O)[C@H](CCCCN)NC(=O)[C@H](CC(C)C)NC(=O)[C@H](CC(C)C)NC(=O)[C@H](CCCCN)NC(=O)[C@H](CC(C)C)NC(=O)[C@H](CC(C)C)NC(=O)[C@@H](N)CC(C)C)C(N)=O` [LLLKLLKLL], in assay [14], the MIC amounted to 3.13 µM (≈ 3.34 µg/mL).

Take `CC[C@H](C)[C@H](NC(=O)[C@@H](NC(=O)[C@@H](N)CCCNC(=N)N)[C@@H](C)CC)C(=O)N[C@@H](CC(=O)O)C(=O)N[C@@H](CC(C)C)C(=O)N[C@@H](CC(C)C)C(=O)N[C@@H](Cc1c[nH]c2ccccc12)C(=O)N[C@@H](CCCNC(=N)N)C(=O)N[C@H](C(=O)N[C@@H](CCCNC(=N)N)C(=O)N[C@@H](CCCNC(=N)N)C(=O)N1CCC[C@H]1C(=O)N[C@@H](CCC(N)=O)C(=O)N[C@@H](Cc1c[nH]c2ccccc12)C(=O)N1CCC[C@H]1C(=O)N[C@@H](CCCCN)C(=O)N[C@@H](Cc1ccccc1)C(=O)N[C@H](C(=O)N[C@H](C(=O)N[C@H](C(=O)N[C@@H](Cc1c[nH]c2ccccc12)C(=O)N[C@H](C(=O)N[C@H](C=O)CCCNC(=N)N)C(C)C)C(C)C)[C@@H](C)O)C(C)C)C(C)C` [RIIDLLWRVRRPQWPKFVTVWVR]: the MIC in assay [15], in assay [16] and in assay [17] was 14.1 µM (≈ 42.5 µg/mL) throughout.

For `CC(C)C[C@H](NC(=O)[C@H](CO)NC(=O)[C@H](CCCN=C(N)N)NC(=O)[C@H](CCCCN)NC(=O)[C@@H](NC(=O)[C@@H](NC(=O)CNC(=O)[C@H](CCCN=C(N)N)NC(=O)[C@H](Cc1cnc[nH]1)NC(=O)[C@H](Cc1c[nH]c2ccccc12)NC(=O)[C@H](Cc1ccccc1)NC(=O)[C@H](Cc1cnc[nH]1)NC(=O)[C@H](Cc1ccc(O)cc1)NC(=O)[C@@H](N)Cc1ccc(O)cc1)C(C)C)[C@@H](C)O)C(=O)O` [YYHFWHRGVTKRSL], the minimum inhibitory concentration (MIC) in assay [18] is no less than 100 µM; in assay [19], 30 µM (≈ 55.5 µg/mL); in assay [20], 60 µM (≈ 111 µg/mL); in assay [21], 70 µM (≈ 130 µg/mL); in [22] it was 80 µM (≈ 148 µg/mL); in assay [23], no less than 70 µM. The MIC is 80 µM (≈ 148 µg/mL) in [24] and no less than 60 µM in [25].
